Results published in US9663514B2 (Takeda Pharmaceutical Company Limited, priority 2011, dated 2017).
pIC50: −log10 of the molar value.

Target: T1, SYK (Homo sapiens, UniProt P43405)
T1 construct: The SYK kinase domain (residues 356-635) is amplified via PCR; made in house; host or cells: Sf9 insect cells (baculovirus, pFastBac1)
Experiment: SYK inhibition: in vitro assay of SYK-mediated phosphorylation of FAM-labeled substrate (Caliper LC-3000)
Format: biochemical
Conditions: SYK kinase domain (residues 356-635); 2.4 nM SYK and 45 μM ATP, 3 μM 5FAM-KKKKEEIYFFFG-NH2, RT 60 min, pH 7.3; pIC50 = −log(IC50), IC50 molar
Description: The ability of compounds to inhibit SYK activity may be assessed using a variety of methods, including in vitro and in vivo assays. The following in vitro assay measures a test compound's ability to inhibit SYK-mediated phosphorylation of a FAM-labeled SYK-specific substrate (5FAM-KKKKEEIYFFFG-NH2).
SYK protein is prepared from cDNA encoding human spleen tyrosine kinase and is expressed in insect cells using a baculovirus expression vector. The cDNA (IMAGE: 3542895) is purchased from Open Biosystems. The SYK kinase domain (residues 356-635) is amplified via PCR and cloned into plasmid pFastBacl (Invitrogen) at BamHI/XbaI sites. Recombinant plasmid encoding Met-Ala-Lys-SYK(356-635)-HHHHHH is sequenced and transformed into E. coli DH10Bac strain. The recombinant bacmid DNA is isolated and transfected into Sf9 insect cells. Recombinant virus is harvested 72 h after transfection. High titer viral stock is prepared by infecting Sf9 cells at a multiplicity of infection (MOI) of approximately 0.01. A suspension of Sf9 cells (10 L) is infected with recombinant virus (MOI=5) and is incubated in a Wave Bioreactor (GE-Healthcare) for 48 h. The cells are harvested and stored at −80° C.
To purify the expressed protein, the frozen Sf9 cells (10 L) are broken into small (<1 cm) particles and suspended in a lysis buffer (300 mL) containing 20 mM Tris (pH 7.6), 0.25 mM TCEP, 100 mM NaCl, 5% glycerol and a protease inhibitor. The suspension is stirred at RT until completely thawed, lysed an additional 2-4 min on a rotary blade homogenizer, and then centrifuged at 4200 g for 1 h. Following centrifugation, the supernatant is poured through cheese cloth and combined with a nickel chelating resin (Probond Resin™, Invitrogen) which is pre-equilibrated in a wash buffer containing 10 mM Tris (pH 7.6), 0.25 mM TCEP, 300 mM NaCl, 5% glycerol, and 20 mM imidazole. The mixture is agitated for 3 h in a cold room and then centrifuged at 900 g for 10 min. The resin is dispersed in wash buffer (50 mL), centrifuged for 10 min at 900 g, re-dispersed in a small amount of wash buffer (5 mL), and then pour into a disposable Poly-Prep chromatography column, through which wash buffer is passed by gravity until no protein is observed in coomassie buffer (about 120 mL of wash buffer). An elution buffer (30 mL) containing 10 mM HEPES (pH 7.4), 150 mM NaCl, 10% glycerol, 5 mM DTT, and 400 mM imidazole is used to elute the SYK protein from the resin. The eluate is concentrated (5 mL) and further purified on a Superdex 200 column (1.2 mL/min for 160 min, 10 mM HEPES (pH 7.4), 10 mM NaCl, 10 mM MgCl, 0.1 mM EDTA, and 0.25 mM TCEP). The chromatographed fractions are run on SDS-PAGE and the requisite fractions are pooled and concentrated. Final delivery buffer is 10 mM HEPES (pH 7.4), 10 mM Methione, 150 mM NaCl, 10% glycerol, 5 mM DTT.
SYK inhibition is determined using a black 384 well plate format in buffer containing 50 mM HEPES, 10 mM NaCl, 10 mM MgCl2, 0.2 mM EDTA, 0.01% EDA (Brij®35), 1 mM DTT, and 0.1 mg/ml BSA at pH 7.3. Each test compound is prepared in DMSO using 2-fold serial dilutions for 11 data points, which are added to the buffer so that each dilution contains 3% DMSO. To each well is added 2 μL of 3 μM SFAM-KKKKEEIYFFFG-NH2 (in buffer), 2 μL of diluted test compound (3% DMSO in buffer), and 2 μL of 2.4 nM SYK and 45 μM ATP (in buffer). The reaction mixture is incubated at RT for 60 min, and quenched by adding 50 mM Hepes, 30 mM EDTA, 0.1% Triton X-100 (pH 7.3). To quantify the fluorescent-labeled substrate and product following reaction, the test plate is loaded on a Caliper LC-3000, which measures percent of conversion by microfluidic-based separation. Corresponding IC50 values are calculated by non-linear curve fitting of the compound concentrations and percent of inhibition to the standard IC50 equation and reported as pIC50, i.e., −log(IC50), where IC50 is molar concentration.

Row | Structure (SMILES) | pIC50
1 | N[C@H]1COCC[C@H]1Nc1nc(-c2cc(C(F)F)ns2)c2c(c1F)CNC2=O [Example 1, 6-((3R,4R)-3-Aminotetrahydro-2H-pyran-4-ylamino)-4-(3-(difluoromethyl)isothiazol-5-yl)-7-fluoro-1H-pyrrolo[3,4-c]pyridin-3(2H)-one] | 7.30
2 | CCc1cc(-c2nc(N[C@@H]3CCOC[C@@H]3N)c(F)c3c2C(=O)NC3)sn1 [Example 2, 6-((3R,4R)-3-Aminotetrahydro-2H-pyran-4-ylamino)-4-(3-ethylisothiazol-5-yl)-7-fluoro-1H-pyrrolo[3,4-c]pyridin-3(2H)-one] | 8.40
3 | CCc1cc(-c2nc(N[C@@H]3CCCC[C@@H]3N)c(F)c3c2C(=O)NC3)sn1 [Example 3, 6-((1R,2S)-2-Aminocyclohexylamino)-4-(3-ethylisothiazol-5-yl)-7-fluoro-1H-pyrrolo[3,4-c]pyridin-3 (2H)-one] | 8.90
4 | N[C@H]1COCC[C@H]1Nc1nc(-c2ccns2)c2c(c1F)CNC2=O [Example 4, 6-((3R,4R)-3-Aminotetrahydro-2H-pyran-4-ylamino)-7-fluoro-4-(isothiazol-5-yl)-1H-pyrrolo[3,4-c]pyridin-3(2H)-one] | 7.90
5 | N[C@H]1CCCC[C@H]1Nc1nc(-c2ccns2)c2c(c1F)CNC2=O [Example 5, 6-((1R,2S)-2-Aminocyclohexylamino)-7-fluoro-4-(isothiazol-5-yl)-1H-pyrrolo[3,4-c]pyridin-3 (2H)-one] | 8.40
6 | N[C@H]1COCC[C@H]1Nc1nc(-c2cc(C3CC3)ns2)c2c(c1F)CNC2=O [Example 6, 6-((3R,4R)-3-Aminotetrahydro-2H-pyran-4-ylamino)-4-(3-cyclopropylisothiazol-5-yl)-7-fluoro-1H-pyrrolo[3,4-c]pyridin-3(2H)-one] | 9.10
7 | N[C@H]1COCC[C@H]1Nc1nc(-c2cc3cc(F)ccc3s2)c2c(c1F)CNC2=O [Example 7, 6-((3R,4R)-3-Aminotetrahydro-2H-pyran-4-ylamino)-7-fluoro-4-(5-fluorobenzo[b]thiophen-2-yl)-1H-pyrrolo[3,4-c]pyridin-3(2H)-one] | 9.70
8 | N#Cc1ccc(-c2nc(N[C@@H]3CCOC[C@@H]3N)c(F)c3c2C(=O)NC3)s1 [Example 8, 5-(6-((3R,4R)-3-Aminotetrahydro-2H-pyran-4-ylamino)-7-fluoro-3-oxo-2,3-dihydro-1H-pyrrolo[3,4-c]pyridin-4-yl)thiophene-2-carbonitrile] | 7.70
9 | N[C@H]1COCC[C@H]1Nc1nc(-c2cc3ccncc3s2)c2c(c1F)CNC2=O [Example 9, 6-((3R,4R)-3-Aminotetrahydro-2H-pyran-4-ylamino)-7-fluoro-4-(thieno[2,3-c]pyridin-2-yl)-1H-pyrrolo[3,4-c]pyridin-3(2H)-one] | 9.70
10 | N[C@H]1COCC[C@H]1Nc1nc(-c2ccc(F)s2)c2c(c1F)CNC2=O [Example 12, 6-((3R,4R)-3-Aminotetrahydro-2H-pyran-4-ylamino)-7-fluoro-4-(5-fluorothiophen-2-yl)-1H-pyrrolo[3,4-c]pyridin-3(2H)-one] | 7.90
11 | N[C@H]1COCC[C@H]1Nc1nc(-c2cc3cccnc3s2)c2c(c1F)CNC2=O [Example 13, 6-((3R,4R)-3-Aminotetrahydro-2H-pyran-4-ylamino)-7-fluoro-4-(thieno[2,3-b]pyridin-2-yl)-1H-pyrrolo[3,4-c]pyridin-3(2H)-one] | 9.60
12 | N[C@H]1CCCC[C@H]1Nc1nc(-c2cc3cccnc3s2)c2c(c1F)CNC2=O [Example 14, 6-((1R,2S)-2-Aminocyclohexylamino)-7-fluoro-4-(thieno[2,3-b]pyridin-2-yl)-1H-pyrrolo[3,4-c]pyridin-3(2H)-one] | 9.80
13 | N[C@H]1CCCC[C@H]1Nc1nc(-c2cc3ccncc3s2)c2c(c1F)CNC2=O [Example 15, 6-((1R,2S)-2-Aminocyclohexylamino)-7-fluoro-4-(thieno[2,3-c]pyridin-2-yl)-1H-pyrrolo[3,4-c]pyridin-3(2H)-one] | 9.80
14 | N[C@H]1CCCC[C@H]1Nc1nc(-c2cc3cc(F)ccc3s2)c2c(c1F)CNC2=O [Example 16, 6-(((1R,2S)-2-Aminocyclohexyl)amino)-7-fluoro-4-(5-fluorobenzo[b]thiophen-2-yl)-1H-pyrrolo[3,4-c]pyridin-3(2H)-one] | 9.50
15 | N[C@H]1COCC[C@H]1Nc1nc(-c2cc3cnccc3s2)c2c(c1F)CNC2=O [Example 17, 6-((3R,4R)-3-Aminotetrahydro-2H-pyran-4-ylamino)-7-fluoro-4-(thieno[3,2-c]pyridin-2-yl)-1H-pyrrolo[3,4-c]pyridin-3(2H)-one] | 9.60
16 | N[C@H]1CCCC[C@H]1Nc1nc(-c2cc3cnccc3s2)c2c(c1F)CNC2=O [Example 18, 6-((1R,2S)-2-Aminocyclohexylamino)-7-fluoro-4-(thieno[3,2-c]pyridin-2-yl)-1H-pyrrolo[3,4-c]pyridin-3(2H)-one] | 9.50
17 | N[C@H]1COCC[C@H]1Nc1nc(-c2cc3ccc(F)cc3s2)c2c(c1F)CNC2=O [Example 19, 6-((3R,4R)-3-Aminotetrahydro-2H-pyran-4-ylamino)-7-fluoro-4-(6-fluorobenzo[b]thiophen-2-yl)-1H-pyrrolo[3,4-c]pyridin-3(2H)-one] | 9.80
18 | N[C@H]1CCCC[C@H]1Nc1nc(-c2cc3ccc(F)cc3s2)c2c(c1F)CNC2=O [Example 20] | 9.60
19 | N#Cc1ccc2sc(-c3nc(N[C@@H]4CCOC[C@@H]4N)c(F)c4c3C(=O)NC4)cc2c1 [Example 21, 2-(6-((3R,4R)-3-Aminotetrahydro-2H-pyran-4-ylamino)-7-fluoro-3-oxo-2,3-dihydro-1H-pyrrolo[3,4-c]pyridin-4-yl)benzo[b]thiophene-5-carbonitrile] | 9.50
20 | N#Cc1ccc2sc(-c3nc(N[C@@H]4CCCC[C@@H]4N)c(F)c4c3C(=O)NC4)cc2c1 [Example 22, 2-(6-((1R,2S)-2-Aminocyclohexylamino)-7-fluoro-3-oxo-2,3-dihydro-1H-pyrrolo[3,4-c]pyridin-4-yl)benzo[b]thiophene-5-carbonitrile] | 9.90
21 | N[C@H]1COCC[C@H]1Nc1nc(-c2cc3c(F)cccc3s2)c2c(c1F)CNC2=O [Example 23, 6-((3R,4R)-3-Aminotetrahydro-2H-pyran-4-ylamino)-7-fluoro-4-(4-fluorobenzo[b]thiophen-2-yl)-1H-pyrrolo[3,4-c]pyridin-3(2H)-one] | 9.40
22 | N[C@H]1CCCC[C@H]1Nc1nc(-c2cc3c(F)cccc3s2)c2c(c1F)CNC2=O [Example 24, 6-((1R,2S)-2-Aminocyclohexylamino)-7-fluoro-4-(4-fluorobenzo[b]thiophen-2-yl)-1H-pyrrolo[3,4-c]pyridin-3(2H)-one] | 9.40
23 | N[C@H]1COCC[C@H]1Nc1nc(-c2cc3ncccc3s2)c2c(c1F)CNC2=O [Example 25, 6-((3R,4R)-3-Aminotetrahydro-2H-pyran-4-ylamino)-7-fluoro-4-(thieno[3,2-b]pyridin-2-yl)-1H-pyrrolo[3,4-c]pyridin-3(2H)-one] | 7.90
